Where two headings read alike, the source gives them in different places.
Legend:
[1] = system: E. coli strains with elevated MICs to Polymyxin B; assay: MIC against strains with elevated MICs to Polymyxin B; format: cell-based, Escherichia coli; conditions: Table 6D; for MIC E. coli 058: strain 058, elevated MIC to Polymyxin B; for MIC E. coli 059: strain 059, elevated MIC to Polymyxin B; for MIC E. coli 060: strain 060, elevated MIC to Polymyxin B; for MIC E. coli 061: strain 061, elevated MIC to Polymyxin B
Outline: (§1)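 Polymyxin B-resistant isolates were inoculated from 0.5 McFarland suspensions of 18-24 hour Mueller-Hinton agar colonies. Testing was done twice per compound, and results disagreeing by over 2-fold were discarded as non-valid. For compounds assayed several times, the modal MIC is given.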

[2] = system: K. pneumoniae strains with elevated MICs to Polymyxin B; assay: as above; format: cell-based, Klebsiella pneumoniae; conditions: Table 6D; for MIC K. pneumoniae 062: strain 062, elevated MIC to Polymyxin B; for MIC K. pneumoniae 063: strain 063, elevated MIC to Polymyxin B; for MIC K. pneumoniae 064: strain 064, elevated MIC to Polymyxin B; for MIC K. pneumoniae 655: strain 655, elevated MIC to Polymyxin B
Outline: as §1

[3] = system: P. aeruginosa strains with elevated MICs to Polymyxin B; assay: as above; format: cell-based, Pseudomonas aeruginosa; conditions: Table 6D; for MIC P. aeruginosa 065: strain 065, elevated MIC to Polymyxin B; for MIC P. aeruginosa 066: strain 066, elevated MIC to Polymyxin B; for MIC P. aeruginosa 067: strain 067, elevated MIC to Polymyxin B
Outline: as §1

[4] = system: A. baumanii strains with elevated MICs to Polymyxin B; assay: as above; format: cell-based, Acinetobacter baumannii; conditions: Table 6D; for MIC A. baumannii 053: strain 053, elevated MIC to Polymyxin B; for MIC A. baumannii 056: strain 056, elevated MIC to Polymyxin B; for MIC A. baumannii 068: strain 068, elevated MIC to Polymyxin B; for MIC A. baumannii 070: strain 070, elevated MIC to Polymyxin B
Outline: as §1

[5] = system: Pseudomonas aeruginosa ATCC 27853; format: in vivo; conditions: mouse lungs, P. aeruginosa ATCC 27853, SC at 2, 6 and 10 h post-infection, 16 h infection model, 17.2 mg/kg/dose free base
Protocol: Groups of 7 male neutropenic specific-pathogen-free CD-1 mice weighing 21.5-27.5 g were used. On Day 0, animals were infected with 0.04 mL inoculum by intranasal instillation into mouse nostrils and were kept in an upright position on a string rack for ˜10 min post-infection. […] At 2 h, the CFU count was determined from 3 mice and the remaining mice (7 per test compound groups) were treated with a subcutaneous injection of the drug at +2, 6 and 10 hr post-infection. Test compounds and the comparator polymyxin B were administered at four concentrations (2.6, 8.6, 17.2 and 25.8 mg/kg free base). The vehicle control group (7 mice) was treated with 0.9% saline for injection at 2, 6 and 10 h post-infection.
(§2) Sixteen hours after infection, the mice were euthanized humanely. The lungs of each animal were harvested, homogenized and quantitatively cultured onto CLED agar for CFU determination. Decrease of the total CFU compared to control counts at 16 h post-infection was determined for each dose group.
The in vivo efficacy of 4 compounds of the invention (D25, D36, D42 and D50) was evaluated in a mouse lung infection model of P. aeruginosa ATCC 27853. The model was setup as described above with the exception that groups of up to 8 mice were inoculated through intranasal instillation of ˜2.5×10^6 CFUs of P. aeruginosa isolate ATCC 27853 (1.0×10^5 CFU/lung). Test compounds were administered at two concentrations (equivalent to 4.3 and 17.2 mg/kg free base). Three dose levels of polymyxin B sulfate were used as comparator (equivalent to 4.3, 8.6 and 17.2 mg/kg free base).

E. coli [6] = system: E. coli
K. pneumoniae [7] = system: K. pneumoniae
P. aeruginosa [8] = system: P. aeruginosa
A. baumannii [9] = system: A. baumannii
E. coli [10] = assay: MIC in 1:1 (wt:wt) combination with Rifampicin; format: cell-based, Escherichia coli; conditions: 1:1 (wt:wt) with Rifampicin, total drug concentration
Protocol: (§3) The inoculum was prepared by making a direct suspension of isolated colonies (selected from an 18-24 hour Mueller-Hinton agar plate) adjusted to the 0.5 McFarland standard. […] The assays were performed in duplicate. […] In cases where the duplicate values varied by less than 2-fold, the lower of the two values is reported. If a variation of greater than 2-fold was observed, the assay was considered non-valid. Several of the compounds were subjected to multiple tests, and where this is the case, the MIC reflects the modal value obtained.
(§4) MIC values (microgram/mL) refer to the total drug concentration (i.e. test agent plus Rifampicin).

K. pneumoniae [11] = assay: MIC in 1:1 (wt:wt) combination with Rifampicin; format: cell-based, Klebsiella pneumoniae; conditions: 1:1 (wt:wt) with Rifampicin, total drug concentration
Protocol: as §3, §4

P. aeruginosa [12] = assay: MIC in 1:1 (wt:wt) combination with Rifampicin; format: cell-based, Pseudomonas aeruginosa; conditions: 1:1 (wt:wt) with Rifampicin, total drug concentration
Protocol: as §3, §4

A. baumannii [13] = assay: MIC in 1:1 (wt:wt) combination with Rifampicin; format: cell-based, Acinetobacter baumannii; conditions: 1:1 (wt:wt) with Rifampicin, total drug concentration
Protocol: as §3, §4

[14] = system: Acinetobacter baumannii NCTC 13301; conditions: for Mean log10 CFU reduction vs. control: mouse lungs, A. baumannii NCTC 13301, SC at 2, 6 and 10 h post-infection, 16 h infection model
Protocol: On Day 0, animals were infected with 0.04 mL inoculum by intranasal instillation into mouse nostrils and were kept in an upright position on a string rack for ˜10 min post-infection. […] The vehicle control group (7 mice) was treated with 0.9% saline for injection at 2, 6 and 10 h post-infection.
as §2

[15] = system: Acinetobacter baumannii NCTC 13301; conditions: mouse thigh, 16 h model
[16] = absence of a second agent, Table 6B

For “3(S)-3-aminomethyl-5- methyl hexanoyl L- Thr-L-Dap-polymyxin B heptapeptide [Example D42]”, the “MIC E. coli 058” value [1] was 8 micrograms/mL, the “MIC E. coli 059” value [1] was 16 micrograms/mL and the “MIC E. coli 060” value [1] was 16 micrograms/mL. The “MIC E. coli 061” value [1] was 32 micrograms/mL, the “MIC K. pneumoniae 062” value [2] was >256 micrograms/mL and the “MIC K. pneumoniae 063” value [2] was 64 micrograms/mL. The “MIC K. pneumoniae 064” value [2] was 16 micrograms/mL, the “MIC K. pneumoniae 655” value [2] was 64 micrograms/mL and the “MIC P. aeruginosa 065” value [3] was 4 micrograms/mL. The “MIC P. aeruginosa 066” value [3] was 32 micrograms/mL, the “MIC P. aeruginosa 067” value [3] was >256 micrograms/mL and the “MIC A. baumannii 053” value [4] was >256 micrograms/mL. The “MIC A. baumannii 056” value [4] was 256 micrograms/mL, the “MIC A. baumannii 068” value [4] was 16 micrograms/mL and the “MIC A. baumannii 070” value [4] was 128 micrograms/mL. For the same substance, the “Mean log10 CFU reduction vs. control” value [5] was 5.34 log10 CFU, the “MIC, E. coli ATCC 25922” value (E. coli [6]; [16]) was 0.25 micrograms/mL and the “MIC, E. coli NCTC 13441” value (E. coli [6]; [16]) was 0.25 micrograms/mL. For the same substance, the “MIC, K. pneumoniae ATCC 4352” value (K. pneumoniae [7]; [16]) was 0.125 micrograms/mL, the “MIC, K. pneumoniae ATCC BAA-2146” value (K. pneumoniae [7]; [16]) was 0.5 micrograms/mL and the “MIC, P. aeruginosa ATCC 27853” value (P. aeruginosa [8]; [16]) was 0.25 micrograms/mL. The “MIC, P. aeruginosa CCUG 59347” value (P. aeruginosa [8]; [16]) was 0.5 micrograms/mL, the “MIC, A. baumannii ATCC BAA-747” value (A. baumannii [9]; [16]) was 0.25 micrograms/mL and the “MIC, A. baumannii NCTC 13424” value (A. baumannii [9]; [16]) was 0.5 micrograms/mL.
In the case of “(trans-5-(isobutyl- piperidine)-3- carbonyl L-Thr-L- Dap-polymyxin B heptapeptide [Example D65]”, the “MIC in 1:1 combination with rifampicin, E. coli 058” value (E. coli [10]; E. coli 058) is reported as ≤0.5 microgram/mL, the “MIC in 1:1 combination with rifampicin, E. coli 059” value (E. coli [10]; E. coli 059) is reported as ≤0.5 microgram/mL and the “MIC in 1:1 combination with rifampicin, E. coli 060” value (E. coli [10]; E. coli 060) is reported as ≤0.5 microgram/mL. For the same substance, the “MIC in 1:1 combination with rifampicin, E. coli ATCC 25922” value (E. coli [10]; E. coli ATCC 25922) was ≤0.5 microgram/mL, the “MIC in 1:1 combination with rifampicin, K. pneumoniae 062” value (K. pneumoniae [11]; K. pneumoniae 062) was 1 microgram/mL and the “MIC in 1:1 combination with rifampicin, K. pneumoniae CCUG 59348” value (K. pneumoniae [11]; K. pneumoniae CCUG 59348) was 1 microgram/mL. For the same substance, the “MIC in 1:1 combination with rifampicin, P. aeruginosa 063” value (P. aeruginosa [12]; P. aeruginosa 063) was 16 microgram/mL, the “MIC in 1:1 combination with rifampicin, P. aeruginosa 068” value (P. aeruginosa [12]; P. aeruginosa 068) was 1 microgram/mL and the “MIC in 1:1 combination with rifampicin, A. baumannii 053” value (A. baumannii [13]; A. baumannii 053) was ≤0.5 microgram/mL. The “MIC in 1:1 combination with rifampicin, A. baumannii 056” value (A. baumannii [13]; A. baumannii 056) was ≤0.5 microgram/mL, the “MIC E. coli 058” value [1] was 1 micrograms/mL and the “MIC E. coli 059” value [1] was 2 micrograms/mL. For the same substance, the “MIC E. coli 060” value [1] was 1 micrograms/mL, the “MIC E. coli 061” value [1] was 2 micrograms/mL and the “MIC K. pneumoniae 062” value [2] was 32 micrograms/mL. The “MIC K. pneumoniae 063” value [2] was 8 micrograms/mL, the “MIC K. pneumoniae 064” value [2] was 2 micrograms/mL and the “MIC K. pneumoniae 655” value [2] was 4 micrograms/mL. The “MIC P. aeruginosa 065” value [3] was 2 micrograms/mL, the “MIC P. aeruginosa 066” value [3] was 1 micrograms/mL and the “MIC P. aeruginosa 067” value [3] was 64 micrograms/mL. The “MIC A. baumannii 053” value [4] was 16 micrograms/mL, the “MIC A. baumannii 056” value [4] was 1 micrograms/mL and the “MIC A. baumannii 068” value [4] was 2 micrograms/mL. For the same substance, the “MIC A. baumannii 070” value [4] was 4 micrograms/mL, the “efficacy compared with polymyxin B” value ([14]; mouse lung, all doses (2.6, 8.6, 17.2 and 25.8 mg/kg free base), SC at 2, 6 and 10 h, 16 h) was “greater efficacy than observed with the equivalent dose of polymyxin B” and the “Mean log10 CFU reduction vs. control” value ([14]; 2.6 mg/kg/dose free base) was 1.07 log10 CFU. For the same substance, the “Mean log10 CFU reduction vs. control” value ([14]; 8.6 mg/kg/dose free base) was 1.91 log10 CFU, the “Mean log10 CFU reduction vs. control” value ([14]; 17.2 mg/kg/dose free base) was 2.89 log10 CFU and the “Mean log10 CFU reduction vs. control” value ([14]; 25.8 mg/kg/dose free base) was 8.15 log10 CFU. The “MIC, E. coli ATCC 25922” value (E. coli [6]; sole activity, Table 6C) was 0.03 micrograms/mL, the “MIC, E. coli NCTC 13441” value (E. coli [6]; sole activity, Table 6C) was 0.06 micrograms/mL and the “MIC, K. pneumoniae ATCC 4352” value (K. pneumoniae [7]; sole activity, Table 6C) was 0.03 micrograms/mL. The “MIC, K. pneumoniae ATCC BAA-2146” value (K. pneumoniae [7]; sole activity, Table 6C) was 0.125 micrograms/mL, the “MIC, P. aeruginosa ATCC 27853” value (P. aeruginosa [8]; sole activity, Table 6C) was 0.25 micrograms/mL and the “MIC, P. aeruginosa CCUG 59347” value (P. aeruginosa [8]; sole activity, Table 6C) was 0.25 micrograms/mL. For the same substance, the “MIC, A. baumannii ATCC BAA-747” value (A. baumannii [9]; sole activity, Table 6C) was 0.06 micrograms/mL, the “MIC, A. baumannii NCTC 13424” value (A. baumannii [9]; sole activity, Table 6C) was 0.125 micrograms/mL and the “Mean log10 CFU reduction vs. control” value ([15]; 0.215 mg/kg/dose free base SC at 2, 6 and 10 h post-infection) was 0.71 log10 CFU. For the same substance, the “Mean log10 CFU reduction vs. control” value ([15]; 0.86 mg/kg/dose free base SC at 2, 6 and 10 h post-infection) was 2.40 log10 CFU, the “Mean log10 CFU reduction vs. control” value ([15]; 2.6 mg/kg/dose free base SC at 2, 6 and 10 h post-infection) was 5.42 log10 CFU and the “Mean log10 CFU reduction vs. control” value ([15]; 8.6 mg/kg/dose free base SC at 2, 6 and 10 h post-infection) was 6.05 log10 CFU. The “Mean log10 CFU reduction vs. control” value ([15]; 17.2 mg/kg/dose free base SC at 2, 6 and 10 h post-infection) was 6.59 log10 CFU.
